Data: patent US7342018B2, “Urokinase inhibitors and uses thereof” (Wilex AG, priority 1998, dated 2008)

Tests used:
[1] = biological target: Factor Xa (Homo sapiens, UniProt P00742); assay: In vitro inhibition of serine proteases: factor Xa; format: biochemical
Description: (§1) Ki values were determined according to Dixon by linear regression using a computer program.

[2] = biological target: T1, Plasmin (Homo sapiens, UniProt P00747); assay: In vitro inhibition of serine proteases: plasmin; format: biochemical
T1 construct: uPA mediates the proteolytic cleavage of plasminogen to give plasmin
T1 sequence (P00747 581-810 limits assumed, species assumed): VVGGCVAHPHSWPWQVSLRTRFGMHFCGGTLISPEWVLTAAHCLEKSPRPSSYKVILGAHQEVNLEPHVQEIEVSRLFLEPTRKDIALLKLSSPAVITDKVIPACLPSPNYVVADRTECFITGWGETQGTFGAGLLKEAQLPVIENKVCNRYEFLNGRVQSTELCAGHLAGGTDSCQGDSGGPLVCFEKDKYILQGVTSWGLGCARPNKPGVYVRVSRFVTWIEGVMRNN
T1 sequence (P00747 97-580 partner limits assumed, species assumed): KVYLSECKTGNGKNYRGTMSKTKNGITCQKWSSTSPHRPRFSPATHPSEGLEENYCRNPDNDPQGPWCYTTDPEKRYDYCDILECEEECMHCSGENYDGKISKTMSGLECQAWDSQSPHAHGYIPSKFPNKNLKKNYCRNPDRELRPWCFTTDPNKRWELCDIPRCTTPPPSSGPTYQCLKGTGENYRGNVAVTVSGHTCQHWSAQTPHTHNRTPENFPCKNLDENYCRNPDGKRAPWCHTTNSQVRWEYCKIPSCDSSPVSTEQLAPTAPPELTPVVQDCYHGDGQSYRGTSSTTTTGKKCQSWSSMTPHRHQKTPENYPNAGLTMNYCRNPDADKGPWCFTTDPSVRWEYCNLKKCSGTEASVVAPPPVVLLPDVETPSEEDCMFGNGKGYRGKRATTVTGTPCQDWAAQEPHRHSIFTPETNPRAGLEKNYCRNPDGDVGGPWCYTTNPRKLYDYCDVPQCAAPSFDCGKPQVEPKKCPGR
Description: as §1

[3] = test system: BN-472 rat mammary carcinoma; assay: BN-472 rat mammary carcinoma model, single agent and combination with cytotoxics (Example 11)
Description: WX-UK1 was dissolved in 5% w/v of D-mannitol to the appropriate dosage and administered once daily or twice weekly either subcutaneously (s.c.) or intraperitonally (i.p.).
Epirubicin (0.75-3 mg/kg body wight), paclitaxel (5-7.5 mg/kg) or 5-FU (20 and 40 mg/kg) was given once weekly by i.v. injection into the external jugular vein.
Control rats received the vehicle 5% w/v of D-mannitol once daily s.c.
A donor rat bearing a tumor of 20×20 mm was sacrificed, the tumor harvested ant the cortex part was sliced into cubes of approximately 10 mm^3 and the transplated orthotopically under the mammary fad pads of female Brown Norway rats.
Treatment was started three or six days (5-FU experiment) after tumor inoculation. Each treatment group consisted of 15 to 21 rats.
Tumor load is plotted as the average±standard error of the mean (SEM).
Tumor, organ weights as well as lung foci counts are presented in Box-Whisker graphs. […] Whiskers extend to the extreme lower 5th and upper 95th percentiles of values. Dots represent individual data.
P-values represent significance levels of pairwise comparisons of treatment groups versus vehicle control. For combination therapy experiments the P-values for the comparison of a cytostatic mono-therapy versus the combination therapy is given.

[4] = biological target: T2, Factor XIIa (Homo sapiens, UniProt P00748); assay: In vitro inhibition of serine proteases: factor XIIa; format: biochemical
T2 sequence (P00748 373-615 limits assumed): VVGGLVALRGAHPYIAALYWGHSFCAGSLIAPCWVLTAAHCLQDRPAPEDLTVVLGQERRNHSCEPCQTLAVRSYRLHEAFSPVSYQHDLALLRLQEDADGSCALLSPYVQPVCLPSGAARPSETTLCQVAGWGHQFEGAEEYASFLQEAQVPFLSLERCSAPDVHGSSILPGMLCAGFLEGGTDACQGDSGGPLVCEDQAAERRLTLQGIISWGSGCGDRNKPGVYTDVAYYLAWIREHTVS
Description: To determine the inhibitory activity, 200 μl of Tris buffer (0.05 mol/l, containing the inhibitor, 0.154 mol/l NaCl, 5% ethanol pH 8.0), 25 μl of substrate (Pefachrome UK or Bz-βAla-Gly-Arg-pNA in H2O; Pentapharm Ltd., Basle, Switzerland) and 50 μl of sc-urokinase (Ribosepharm GmbH, Haan, Germany) were incubated at 25° C. After 3 min the reaction was stopped by adding 25 μl of acetic acid (50%), and the absorption at 405 nm was determined by means of a Microplate Reader (MR 5000, Dynatech, Denkendorf, Germany). Ki values were determined according to Dixon by linear regression using a computer program. The Ki values are the mean values of at least three determinations with a standard deviation of less than 25%.
The inhibition activities of the enzymes used were determined according to the principle described in Example 3.

[5] = test system: human ovarian carcinoma cells OV-MZ-6; assay: Cytotoxicity determination (tetrazolium salt conversion, Promega); format: cell-based
Source text: To determine cell proliferation/cytotoxicity a commercially available test was used (Promega) which is based on the cellular conversion of a tetrazolium salt. The colored product resulting from this reaction can be quantified by means of an ELISA spectrometer (ICN flow). The synthetic inhibitor (open circles) had no effect on the growth of the human ovarian carcinoma cells OV-MZ-6 (FIG. 1) when compared with the solvent alone (closed circles). Thus, the inventive uPA inhibitor is not cytotoxic in pharmacologically effective concentrations up to 40 μM.

[6] = biological target: Glandular kallikrein (Homo sapiens, UniProt P06870); assay: In vitro inhibition of serine proteases: glandular kallikrein; format: biochemical
Sequence of Glandular kallikrein (P06870 25-262): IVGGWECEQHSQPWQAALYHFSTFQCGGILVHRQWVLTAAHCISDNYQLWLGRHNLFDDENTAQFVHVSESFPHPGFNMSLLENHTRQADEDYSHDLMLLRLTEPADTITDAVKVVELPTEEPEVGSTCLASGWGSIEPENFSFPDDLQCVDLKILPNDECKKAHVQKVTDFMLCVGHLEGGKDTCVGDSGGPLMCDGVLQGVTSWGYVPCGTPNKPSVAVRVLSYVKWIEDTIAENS
Description: as §1

[7] = Phase I clinical trial in healthy male volunteers (WX/50-001); format: in vivo, human; conditions: for tolerability: all dose levels
Description: In the first clinical trial with WX-UK1 (WX/50-001) the drug was investigated in a double-blind, randomized, three-way cross-over, placebo controlled phase I study focussing on pharmacokinetics, pharmacodynamics, safety, and tolerability of increasing doses of WX-UK1.
In this study six ascending i.v. Doses of WX-UK1 in the range of 0.01 to 0-3 mg/kg were administered and each dose was given to groups of six healthy male volunteers.

[8] = test system: BN-472 breast cancer tumor; assay: Breast cancer model in rats (Example 7); format: in vivo; conditions: for average tumor weights at the end of the treatment, reduced to % of vehicle-treated control / mean weights of the axillary lymph nodes, reduced to % of control / number of lung foci, reduced to % of control: 1 mg/kg daily
Description: 10-25 mm^3 of BN-472 breast cancer tumor fragments from rats were transplanted into female brown Norwegian rats from 6 to 7 weeks old, subcutaneously and orthotopically under the subcutaneous fat of the mammary gland (Day 0). The treatment of the animals was started intraperitoneally 24 hours after tumor inoculation. Each group consisted of eight animals. The control group received only the injection solution (100 μl of a 10% ethanol/saline (0.9% NaCl) solution). A dose of 1 mg/kg body weight was intraperitoneally administered on a daily basis to the comparative group of the naphthyl derivative. (B) and to the therapy group of the inventive uPA inhibitor (A). The treatment was carried out over a period of 4 weeks.
The dimensions of the subcutaneous tumors and the weight of the animals were determined weekly. At the end of the treatment the animals were sacrificed and tumor weights, organ weights and the number of metastases in relevant tissues were determined.
The experiments described in sections A and B were repeated with the inhibitor administered in a different way. For this, the inhibitor was administered subcutaneously in the breast carcinoma model (n=9) and intraperitoneally in the pancreatic adenocarcinoma model (n=8) without changing the daily dose. The results of these repeat experiments corresponded to the results already discussed, both in tendency and extent.

[9] = test system: human breast carcinoma cells; assay: Fibrin matrix degradation assay (D dimer ELISA); format: cell-based; conditions: different concentrations, 4 h (FIG. 2)
Description: To study the potential of tumor cells for breaking down an extracellular matrix, a fibrin matrix degradation assay was developed and used. A greater proteolytic activity of the tumor cells leads to a higher concentration of fibrin degradation products in the matrix supernatant. The matrix degradation capacity corresponds to the concentration of fibrin degradation products which are determined by means of ELISA (D dimer).
The fibrin gels were prepared in 24-well culture dishes from […] of fibrinogen (50 mg/ml) in PBS (pH 7.4), by 50 μl of thrombin (10 U/ml) and 50 μl of CaCl2 (150 mM) per well after incubation at 37° C. for 30 minutes. 2×10^5 breast carcinoma cells were seeded on said fibrin matrix in 1 ml of DMEM culture medium plus 10% fetal calf serum and 2 μg of Glu-plasminogen, and incubated for 4 h. The supernatant was then centrifuged, in order to remove the cells, and the fibrin degradation products were quantified by means of ELISA.

Sequence of Factor Xa (P00742 235-488 limits assumed): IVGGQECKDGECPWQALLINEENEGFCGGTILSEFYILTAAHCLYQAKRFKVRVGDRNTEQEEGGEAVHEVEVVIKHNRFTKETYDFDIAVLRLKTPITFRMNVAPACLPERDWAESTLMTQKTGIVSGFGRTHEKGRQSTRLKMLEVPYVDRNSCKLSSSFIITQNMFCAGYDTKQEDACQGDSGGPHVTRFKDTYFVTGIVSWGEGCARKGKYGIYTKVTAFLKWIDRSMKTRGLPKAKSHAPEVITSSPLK
Sequence of Factor Xa (P00742 41-179 partner limits assumed): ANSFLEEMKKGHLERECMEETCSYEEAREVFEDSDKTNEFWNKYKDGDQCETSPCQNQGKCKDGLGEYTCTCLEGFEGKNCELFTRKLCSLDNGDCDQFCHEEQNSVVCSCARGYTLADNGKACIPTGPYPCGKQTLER

**Q.** Which Ki [1] does the source give for `CCOC(=O)N1CCN(C(=O)[C@H](Cc2cccc(C(=N)N)c2)NS(=O)(=O)c2c(C(C)C)cc(C(C)C)cc2C(C)C)CC1.Cl` [uPA inhibitor, Nα-2,4,6-Triisopropylphenylsulfonyl-(L)-3-amidinophenylalanine 4-ethoxycarbonylpiperazide hydrochloride] here?
**A.** 1.7 µM

**Q.** And the Ki [2]?
**A.** 0.39 µM

**Q.** What about the “anti-metastatic effects in combination therapies (lymph nodes weight, macroscopic lung foci number)” value ([3]; WX-UK1 and the cytostatic agents) of the same molecule?
**A.** additional anti-metastatic effects

**Q.** And the “anti-metastatic effects in combination” value ([3]; combined with either epirubicin and in particular with 5-FU)?
**A.** statistically significant additive anti-metastatic effects

**Q.** And the “number of macroscopically detectable lung foci” value ([3]; compared with 5-FU)?
**A.** equally effective

**Q.** What about the “number of macroscopically detectable lung foci” value ([3]; compared with epirubicin or paclitaxel) of the same molecule?
**A.** more effectively reduced

**Q.** And the “anti-tumor effects (tumor size development, final tumor weight)” value ([3]; daily administration)?
**A.** Dose-dependent anti-tumor effects

**Q.** And the “metastatic endpoints in combination” value ([3]; plus epirubicin, paclitaxel or 5-FU)?
**A.** tended to provide additive benefits

**Q.** What about the “reducing lymphogenic spread as determined by lymph-node weight” value ([3]; single agent, compared with epirubicin, paclitaxel or 5-FU alone) of the same molecule?
**A.** more or similarly active

**Q.** What about the Ki [4] of the same molecule?
**A.** 13 µM

**Q.** What about the “effect on the growth of OV-MZ-6 cells” value ([5]; compared with the solvent alone (FIG. 1)) of the same molecule?
**A.** no effect

**Q.** What about the cytotoxicity ([5]; concentrations up to 40 μM) of the same molecule?
**A.** not cytotoxic

**Q.** What about the Ki [6] of the same molecule?
**A.** > 1000 µM

**Q.** What about the “changes in vital signs, ECG parameters, general safety laboratory parameters and adverse event profiles” value ([7]; attributable to the study drug) of the same molecule?
**A.** No changes

**Q.** What about the “mean increases of coagulation parameters PT, aPTT and TT” value ([7]; doses of 0.05 mg/kg and higher, end of infusion, 0-5% with placebo) of the same molecule?
**A.** 6-13%

**Q.** And the “dose proportionality in PK studies” value ([7]; healthy volunteers)?
**A.** good dose proportionality

**Q.** And the “systemic and local safety profile” value ([7]; healthy volunteers)?
**A.** advantageous systemic and local safety profile

**Q.** And the bleeding times ([7]; human, in vivo)?
**A.** unchanged

**Q.** What about the drug-induced hemolysis ([7]; human, in vivo) of the same molecule?
**A.** no indication

**Q.** And the “time for coagulation parameters to return to baseline” value ([7]; human, in vivo)?
**A.** ≤ 15 min

**Q.** What about the “time of maximum plasma concentrations” value ([7]; i.v. infusion (FIG. 10)) of the same molecule?
**A.** at the end of the 30 min. infusion period

**Q.** What about the “mean terminal half lives” value ([7]; i.v. infusion, healthy male volunteers) of the same molecule?
**A.** 10 to 12 h

**Q.** What about the tolerability ([7]; i.v. infusion, healthy volunteers, listed as WK-UK1, hydrochloride) of the same molecule?
**A.** well tolerated

**Q.** And the tolerability ([7]; i.v. infusion, healthy volunteers, listed as WX-UK1, hydrochloride)?
**A.** very well tolerated

**Q.** And the “renal excretion of the parent compound” value ([7]; share of the dose)?
**A.** less then one percent

**Q.** And the “weights of lung, liver, kidney and spleen” value ([8]; 1 mg/kg i.p. daily, 4 weeks, compared to control animals)?
**A.** unchanged

**Q.** And the “weight of the primary tumor” value ([8]; 1 mg/kg i.p. daily, 4 weeks, p=0.003 vs naphthyl derivative (B) and control)?
**A.** significant reduction

**Q.** What about the “weight of the axillary lymph nodes” value ([8]; 1 mg/kg i.p. daily, 4 weeks, p=0.005 vs naphthyl derivative (B) and control) of the same molecule?
**A.** significant reduction

**Q.** And the “toxicity (body weight increase, organ weights)” value ([8]; breast and pancreatic tumor models in rats, inhibitor-treated vs vehicle-treated groups)?
**A.** no indications of any considerable toxicity

**Q.** And the “average tumor weights at the end of the treatment, reduced to % of vehicle-treated control” value ([8]; i.p.)?
**A.** 23%

**Q.** And the “mean weights of the axillary lymph nodes, reduced to % of control” value ([8]; i.p.)?
**A.** 27%

**Q.** What about the “number of lung foci, reduced to % of control” value ([8]; i.p.) of the same molecule?
**A.** 9%

**Q.** And the “number of metastatic lung foci” value ([8]; rat breast cancer model, vs vehicle-treated controls)?
**A.** substantially reduced

**Q.** And the “sizes of subcutaneous tumors” value ([8]; rat pancreatic and breast cancer models, vs vehicle-treated controls)?
**A.** reduced

**Q.** What about the “average tumor weights at the end of the treatment, reduced to % of vehicle-treated control” value ([8]; s.c.) of the same molecule?
**A.** 37%

**Q.** What about the “mean weights of the axillary lymph nodes, reduced to % of control” value ([8]; s.c.) of the same molecule?
**A.** 48%

**Q.** And the “number of lung foci, reduced to % of control” value ([8]; s.c.)?
**A.** 32%

**Q.** What about the “inhibition of fibrin matrix degradation by breast carcinoma cells” value [9] of the same molecule?
**A.** significant inhibition
